Reference: patent US20160101148A1, “TREATMENT AND PREVENTION OF BACTERIAL SKIN INFECTIONS USING ORITAVANCIN” (priority 2013, published 2016)
≈ marks a conversion by molar mass, not a printed value.

Columns and labels:
[1] = test system: S. aureus strains (14 mecC MRSA, 2 mecA MRSA, ATCC 29213 MSSA); assay: Broth microdilution MIC determination; type: cell-based, Staphylococcus aureus
Description: The S. aureus (SA) strains used in this study were: ATCC 43300 (mecA methicillin-resistant SA [MRSA]); ATCC 33591 (mecA MRSA), ATCC 29213 (methicillin-susceptible SA; quality control strain) and 14 mecC MRSA obtained from the Staten Serum Institute (Copenhagen, Denmark).
Tests with oritavancin included polysorbate-80 (final test concentration of 0.002%) as described (CLSI 2012a; Arhin et al., 2008). Tests with daptomycin included CaCl2 at a concentration of 50 mg/L. MICs were read after 24 h incubation.

[2] = test system: S. aureus strains (14 mecC MRSA, 2 mecA MRSA, ATCC 29213 MSSA); assay: In vitro time-kill assays at free peak and free trough concentrations; type: cell-based, Staphylococcus aureus
Description: Viable cell count was determined by serial dilution plating, including the use of 25 g/L charcoal suspension to limit antibiotic carryover. […] Time-kill assays were repeated at least twice independently; results presented are from a representative experiment.
Doubling dilution concentrations of comparator agents were likewise chosen to approximate their fCmax and fCmin levels in plasma when administered at approved dosages for complicated skin and skin structure infections, using pharmacokinetic data and protein binding values from their respective package inserts (DAP [Cubicin®]; LZD [Zyvox®]; VAN [Vancocin®]; Table 3).

## CN[C@H](CC(C)C)C(=O)N[C@H]1C(=O)N[C@@H](CC(N)=O)C(=O)N[C@H]2C(=O)N[C@H]3C(=O)N[C@H](C(=O)N[C@H](C(=O)O)c4cc(O)cc(O)c4-c4cc3ccc4O)[C@H](O[C@H]3C[C@](C)(N)[C@@H](O)[C@H](C)O3)c3ccc(c(Cl)c3)Oc3cc2cc(c3O[C@@H]2O[C@H](CO)[C@@H](O)[C@H](O)[C@H]2O[C@H]2C[C@](C)(NCc3ccc(-c4ccc(Cl)cc4)cc3)[C@@H](O)[C@H](C)O2)Oc2ccc(cc2Cl)[C@H]1O [Oritavancin, N^DISACC-(4-(4-chlorophenyl)benzyl)A82846B]
[1]; Staphylococcus aureus
  MIC90: 0.06 µg/mL (≈ 0.0335 µM)
[1]; Staphylococcus aureus, 57147 MRSA (mecC)
  MIC: 0.03 µg/mL (≈ 0.0167 µM)
[1]; Staphylococcus aureus, 70611 MRSA (mecC)
  MIC: 0.06 µg/mL (≈ 0.0335 µM)
[1]; Staphylococcus aureus, 73348 MRSA (mecC)
  MIC: 0.06 µg/mL (≈ 0.0335 µM)
[1]; Staphylococcus aureus, 73415 MRSA (mecC)
  MIC: 0.06 µg/mL (≈ 0.0335 µM)
[1]; Staphylococcus aureus, 73617 MRSA (mecC)
  MIC: 0.03 µg/mL (≈ 0.0167 µM)
[1]; Staphylococcus aureus, 73829 MRSA (mecC)
  MIC: 0.03 µg/mL (≈ 0.0167 µM)
[1]; Staphylococcus aureus, 75814 MRSA (mecC)
  MIC: 0.06 µg/mL (≈ 0.0335 µM)
[1]; Staphylococcus aureus, 76918 MRSA (mecC)
  MIC: 0.03 µg/mL (≈ 0.0167 µM)
[1]; Staphylococcus aureus, 77431 MRSA (mecC)
  MIC: 0.03 µg/mL (≈ 0.0167 µM)
[1]; Staphylococcus aureus, 77601 MRSA (mecC)
  MIC: 0.03 µg/mL (≈ 0.0167 µM)
[1]; Staphylococcus aureus, 77950 MRSA (mecC)
  MIC: 0.03 µg/mL (≈ 0.0167 µM)
[1]; Staphylococcus aureus, 77964 MRSA (mecC)
  MIC: 0.06 µg/mL (≈ 0.0335 µM)
[1]; Staphylococcus aureus, 78085 MRSA (mecC)
  MIC: 0.06 µg/mL (≈ 0.0335 µM)
[1]; Staphylococcus aureus, 78651 MRSA (mecC)
  MIC: 0.06 µg/mL (≈ 0.0335 µM)
[1]; Staphylococcus aureus, ATCC 29213 (MSSA)
  MIC: 0.06 µg/mL (≈ 0.0335 µM)
[1]; Staphylococcus aureus, ATCC 29213 / ATCC 33591 / MRSA / MSSA, ATCC 33591 MRSA (mecA)
  MIC: 0.06 µg/mL (≈ 0.0335 µM)
[1]; Staphylococcus aureus, ATCC 29213 / ATCC 43300 / MRSA / MSSA, ATCC 43300 MRSA (mecA)
  MIC: 0.06 µg/mL (≈ 0.0335 µM)
[1]; Staphylococcus aureus, QC and mecA strains
  MIC: 0.06 µg/mL (≈ 0.0335 µM)
[1]; mecC strains
  MIC range: 0.03 to 0.06 µg/mL
[2]; 57147 (mecC), oritavancin ƒCmax 16 mg/L
  Time to cidality (≧3 log decrease): 5-10 min
[2]; 57147 (mecC), oritavancin ƒCmin 2 mg/L
  Time to cidality (≧3 log decrease): 5-10 min
[2]; 70611 (mecC), oritavancin ƒCmax 16 mg/L
  Time to cidality (≧3 log decrease): ≦5 min
[2]; 70611 (mecC), oritavancin ƒCmin 2 mg/L
  Time to cidality (≧3 log decrease): 5-10 min
[2]; 73348 (mecC), oritavancin ƒCmax 16 mg/L
  Time to cidality (≧3 log decrease): 5-10 min
[2]; 73348 (mecC), oritavancin ƒCmin 2 mg/L
  Time to cidality (≧3 log decrease): 5-10 min
[2]; 73415 (mecC), oritavancin ƒCmax 16 mg/L
  Time to cidality (≧3 log decrease): 5-10 min
[2]; 73415 (mecC), oritavancin ƒCmin 2 mg/L
  Time to cidality (≧3 log decrease): 5-10 min
[2]; 73617 (mecC), oritavancin ƒCmax 16 mg/L
  Time to cidality (≧3 log decrease): 5-10 min
[2]; 73617 (mecC), oritavancin ƒCmin 2 mg/L
  Time to cidality (≧3 log decrease): 10-15 min
[2]; 73829 (mecC), oritavancin ƒCmax 16 mg/L
  Time to cidality (≧3 log decrease): ≦5 min
[2]; 73829 (mecC), oritavancin ƒCmin 2 mg/L
  Time to cidality (≧3 log decrease): 5-10 min
[2]; 75814 (mecC), oritavancin ƒCmax 16 mg/L
  Time to cidality (≧3 log decrease): ≦5 min
[2]; 75814 (mecC), oritavancin ƒCmin 2 mg/L
  Time to cidality (≧3 log decrease): 5-10 min
[2]; 76918 (mecC), oritavancin ƒCmax 16 mg/L
  Time to cidality (≧3 log decrease): 5-10 min
[2]; 76918 (mecC), oritavancin ƒCmin 2 mg/L
  Time to cidality (≧3 log decrease): 5-10 min
[2]; 77431 (mecC), oritavancin ƒCmax 16 mg/L
  Time to cidality (≧3 log decrease): ≦5 min
[2]; 77431 (mecC), oritavancin ƒCmin 2 mg/L
  Time to cidality (≧3 log decrease): 5-10 min
[2]; 77601 (mecC), oritavancin ƒCmax 16 mg/L
  Time to cidality (≧3 log decrease): ≦5 min
[2]; 77601 (mecC), oritavancin ƒCmin 2 mg/L
  Time to cidality (≧3 log decrease): 5-10 min
[2]; 77950 (mecC), oritavancin ƒCmax 16 mg/L
  Time to cidality (≧3 log decrease): ≦5 min
[2]; 77950 (mecC), oritavancin ƒCmin 2 mg/L
  Time to cidality (≧3 log decrease): 5-10 min
[2]; 77964 (mecC), oritavancin ƒCmax 16 mg/L
  Time to cidality (≧3 log decrease): ≦5 min
[2]; 77964 (mecC), oritavancin ƒCmin 2 mg/L
  Time to cidality (≧3 log decrease): 5-10 min
